Reference: BindingDB's records for doi:10.1021/jm0104062 (Louis Pasteur University, 2002)

Target: P2Y purinoceptor 1 (Homo sapiens, UniProt P47900)
Test: pA2 value was evaluated against P2Y purinoceptor 1

Chain of P2Y purinoceptor 1 (P47900 whole entry): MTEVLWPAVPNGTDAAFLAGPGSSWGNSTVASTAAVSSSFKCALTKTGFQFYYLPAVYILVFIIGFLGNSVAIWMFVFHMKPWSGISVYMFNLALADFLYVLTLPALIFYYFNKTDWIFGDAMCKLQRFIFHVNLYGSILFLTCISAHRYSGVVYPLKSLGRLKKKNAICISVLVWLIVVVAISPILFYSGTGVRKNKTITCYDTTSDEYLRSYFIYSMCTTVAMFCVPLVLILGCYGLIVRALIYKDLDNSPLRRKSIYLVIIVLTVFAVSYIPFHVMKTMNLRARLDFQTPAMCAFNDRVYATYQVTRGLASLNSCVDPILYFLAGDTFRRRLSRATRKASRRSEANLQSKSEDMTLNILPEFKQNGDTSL

Kd: 0.0776 µM
SMILES: CNc1nc(C)nc2c1ncn2C1CC(OP(=O)(O)O)C(COP(=O)(O)O)O1 (stereo unspecified)
